# Measured values: the CombiSolv-Exp solvation set (Vermeire and Green 2021)
# Experiment: solvent given as SMILES
# [1] = in CCCCCCCCC=CCCCCCCCC(=O)OCC(COC(=O)CCCCCCCC=CCCCCCCCC)OC(=O)CCCCCCCC=CCCCCCCCC
smiles,measurement,setting,value
CCCCCCCCCC,"solvation free energy, 298 K",in CCC(C)(C)OC,-6.77 kcal/mol
same,"solvation free energy, 298 K",in CCC(C)=O,-6.01 kcal/mol
same,"solvation free energy, 298 K",in CCCCCC,-6.85 kcal/mol
same,"solvation free energy, 298 K",in CCCCCCCCCCCCCCCC,-6.34 kcal/mol
same,"solvation free energy, 298 K",in CCO,-5.35 kcal/mol
same,"solvation free energy, 298 K",in CCOC(=O)c1ccccc1C(=O)OCC,-5.13 kcal/mol
same,"solvation free energy, 298 K",in CN1CCCC1=O,-4.92 kcal/mol
same,"solvation free energy, 298 K",in CN(C)C=O,-4.94 kcal/mol
same,"solvation free energy, 298 K",in COCCO,-4.75 kcal/mol
same,"solvation free energy, 298 K",in Cc1ccc(C)cc1,-6.68 kcal/mol
same,"solvation free energy, 298 K",in N#CCCCCC#N,-3.99 kcal/mol
same,"solvation free energy, 298 K",in O,3.18 kcal/mol
same,"solvation free energy, 298 K",in O=CN1CCOCC1,-4.15 kcal/mol
same,"solvation free energy, 298 K",in OCCO,-2.19 kcal/mol
same,"solvation free energy, 298 K",in OCCOCCO,-3.2 kcal/mol
same,"solvation free energy, 298 K",in OCCOCCOCCO,-3.33 kcal/mol
same,"solvation free energy, 298 K",in OCCOCCOCCOCCO,-3.61 kcal/mol
CCCCCC(=O)OC,"solvation free energy, 298 K",in CCCCCC,-5.65 kcal/mol
same,"solvation free energy, 298 K",in CCCCCCC,-5.63 kcal/mol
same,"solvation free energy, 298 K",in CCCCCCCC,-5.55 kcal/mol
same,"solvation free energy, 298 K",in CCCCCCCCCC,-5.48 kcal/mol
same,"solvation free energy, 298 K",in CO,-5.84 kcal/mol
same,"solvation free energy, 298 K",in O,-2.5 kcal/mol
c1ccc2c(c1)Cc1ccccc1-2,"solvation free energy, 298 K",in CC(=O)N(C)C,-10.4 kcal/mol
same,"solvation free energy, 298 K",in CC(C)(C)O,-8.84 kcal/mol
same,"solvation free energy, 298 K",in CC(C)CC(C)(C)C,-9.32 kcal/mol
same,"solvation free energy, 298 K",in CC(C)CCO,-8.95 kcal/mol
same,"solvation free energy, 298 K",in CC(C)CO,-9.21 kcal/mol
same,"solvation free energy, 298 K",in CC(C)O,-8.92 kcal/mol
same,"solvation free energy, 298 K",in CCC(C)O,-8.95 kcal/mol
same,"solvation free energy, 298 K",in CCCC(C)O,-9.03 kcal/mol
same,"solvation free energy, 298 K",in CCCCC(CC)CO,-9.14 kcal/mol
same,"solvation free energy, 298 K",in CCCCCC,-9.29 kcal/mol
same,"solvation free energy, 298 K",in CCCCCCC,-9.3 kcal/mol
same,"solvation free energy, 298 K",in CCCCCCCC,-9.29 kcal/mol
same,"solvation free energy, 298 K",[1],-9.74 kcal/mol
same,"solvation free energy, 298 K",in CCCCCCCCCC,-9.32 kcal/mol
same,"solvation free energy, 298 K",in CCCCCCCCCCO,-9.33 kcal/mol
same,"solvation free energy, 298 K",in CCCCCCCCO,-9.32 kcal/mol
same,"solvation free energy, 298 K",in CCCCCCCO,-9.33 kcal/mol
same,"solvation free energy, 298 K",in CCCCCCO,-9.26 kcal/mol
same,"solvation free energy, 298 K",in CCCCCO,-9.24 kcal/mol
same,"solvation free energy, 298 K",in CCCCO,-9.15 kcal/mol
same,"solvation free energy, 298 K",in CCCO,-9.09 kcal/mol
same,"solvation free energy, 298 K",in CCO,-8.93 kcal/mol
same,"solvation free energy, 298 K",in CN1CCCC1=O,-10.5 kcal/mol
same,"solvation free energy, 298 K",in CO,-8.85 kcal/mol
same,"solvation free energy, 298 K",in O,-3.34 kcal/mol
COC(CCl)(OC)OC,"solvation free energy, 298 K",in O,-4.59 kcal/mol
CCOCCOC(=O)c1ccccc1C(=O)OCCOCC,"solvation free energy, 298 K",in O,-13.4 kcal/mol
CCCCCCCCCCO,"solvation free energy, 298 K",in CC(C)O,-9.77 kcal/mol
same,"solvation free energy, 298 K",in CCCCCC,-7.69 kcal/mol
same,"solvation free energy, 298 K",in CCCCCCCC,-7.87 kcal/mol
same,"solvation free energy, 298 K",in CCCCCCCCCO,-9.64 kcal/mol
same,"solvation free energy, 298 K",in CCCO,-9.73 kcal/mol
same,"solvation free energy, 298 K",in O,-3.69 kcal/mol
CC(Cl)Cl,"solvation free energy, 298 K",in CCCCCCCCO,-3.29 kcal/mol
same,"solvation free energy, 298 K",in ClC(Cl)(Cl)Cl,-3.78 kcal/mol
same,"solvation free energy, 298 K",in ClC(Cl)Cl,-4.11 kcal/mol
same,"solvation free energy, 298 K",in ClCCCl,-4.02 kcal/mol
same,"solvation free energy, 298 K",in O,-0.84 kcal/mol
CCCCCCC=O,"solvation free energy, 298 K",in O,-2.67 kcal/mol
Oc1c(Cl)c(Cl)c(Cl)c(Cl)c1Cl,"solvation free energy, 298 K",[1],-10.3 kcal/mol
same,"solvation free energy, 298 K",in O,-4.99 kcal/mol
CCCCCCCCCCCCCCO,"solvation free energy, 298 K",in CC(C)O,-12.3 kcal/mol
same,"solvation free energy, 298 K",in CCC(C)=O,-12.6 kcal/mol
same,"solvation free energy, 298 K",[1],-9.9 kcal/mol
same,"solvation free energy, 298 K",in CCCCCCCCCCO,-12.1 kcal/mol
same,"solvation free energy, 298 K",in CCCCCCO,-12.2 kcal/mol
same,"solvation free energy, 298 K",in O,-3.08 kcal/mol
CN(C)C(=O)c1ccccc1,"solvation free energy, 298 K",in O,-9.29 kcal/mol
c1ccc2c(c1)oc1ccccc12,"solvation free energy, 298 K",in CC(=O)N(C)C,-9.94 kcal/mol
same,"solvation free energy, 298 K",in CN1CCCC1=O,-10 kcal/mol
same,"solvation free energy, 298 K",in O,-3.31 kcal/mol
CC(C)=NO,"solvation free energy, 298 K",in CCCCCC,-3.74 kcal/mol
c1cc2ccc3ccc4ccc5cccc6c(c1)c2c3c4c56,"solvation free energy, 298 K",in O,-8.98 kcal/mol
same,"solvation free energy, 298 K",in O=C1CCCCC1,-19.4 kcal/mol
CCCCCCCC(=O)OC,"solvation free energy, 298 K",in O,-2.04 kcal/mol
Oc1c(Cl)cc(Cl)cc1Cl,"solvation free energy, 298 K",[1],-8.28 kcal/mol
same,"solvation free energy, 298 K",in O,-4.95 kcal/mol
C=C1CC=C(C(C)C)CC1,"solvation free energy, 298 K",in O,0.05 kcal/mol
Nc1ccc(N)c2c1C(=O)c1ccccc1C2=O,"solvation free energy, 298 K",in O,-11.8 kcal/mol
CCCC(=O)CC(=O)CCC,"solvation free energy, 298 K",in O,-4.33 kcal/mol
CCCNCCC,"solvation free energy, 298 K",in O,-3.65 kcal/mol
O=[N+]([O-])c1ccccc1O,"solvation free energy, 298 K",in CC(C)CC(C)(C)C,-6.5 kcal/mol
same,"solvation free energy, 298 K",in CCCCCC,-6.48 kcal/mol
same,"solvation free energy, 298 K",in CCCCCCC,-6.49 kcal/mol
same,"solvation free energy, 298 K",in CCCCCCCC,-6.49 kcal/mol
same,"solvation free energy, 298 K",in CCCCCCCCCC,-6.47 kcal/mol
same,"solvation free energy, 298 K",in Cc1cccc(C)c1,-7.73 kcal/mol
same,"solvation free energy, 298 K",in O,-4.58 kcal/mol
